Data taken from patent US9795609B2, “Pharmaceutical composition of 1-adamantylethyloxy-3-morpholino-2-propanol or pharmaceutically acceptable salts thereof for the treatment of cardiovascular disease” (priority 2012, dated 2017).

Key:
Format in all cases: in vivo
[1] = tested on: rats with acute adrenal cardiomyopathy; assay: Acute adrenal cardiomyopathy simulation in rats, preventive single administration; settings: single doses of 15, 30, 50 and 100 mg/kg one hour before simulation
Source text: This allows to use it for treatment of various forms of ischemic heart disease, including unstable angina pectoris, stable rest and exertional angina pectoris, angina pectoris of intact vessels, acute coronary syndrome (including early postinfarction angina pectoris), myocardial infarction (large-focus and small-focus, repeated and recurrent) post resuscitation disease (state after emergency procedures), and cardiomyopathies of various genesis (alcoholic, infectious-toxic, and metabolic).

[2] = tested on: rats with small-focus myocardial infarction; assay: Experimental therapy of rats with small-focus myocardial infarction
Source text: The ability of the pharmaceutical composition for parenteral use comprising the active substance 1-adamantylethyloxy-3-morpholino-2-propanol or pharmaceutically acceptable salts thereof allows its use for treatment of cardiomyopathies of various geneses (alcoholic, infectious, toxic, and metabolic).
This allows to use it for treatment of various forms of coronary artery disease, including unstable angina pectoris, stable rest and exertional angina pectoris, angina pectoris of intact vessels, acute coronary syndrome (including early postinfarction angina pectoris), myocardial infarction (large-focus and small-focus, repeated and recurrent) post resuscitation disease (state after emergency procedures), treatment and prevention of ischemic myocardial postreperfusion injuries after thrombolysis, stenting, balloon angioplasty, coronary vessels atheroctomy, postinfarction myocardiosclerosis, cardiomyopathies of various genesis (alcoholic, infectious-toxic, and metabolic), heart rhythm disorders, diabetic angiopathies and complications thereof.

cats = assay: Coronary blood flow and haemodynamics in cats after intravenous administration; settings: 3, 5, and 10 mg/kg intravenously
Source text: The ability of the pharmaceutical composition for parenteral use comprising the active substance 1-adamantylethyloxy-3-morpholino-2-propanol or pharmaceutically acceptable salts thereof to improve myocardial perfusion indicates to appropriateness of its use in acute coronary syndrome.

[3] = 10 mg/kg once a day for 96 hours of ischemia

SMILES: OC(COCCC12CC3CC(CC(C3)C1)C2)CN1CCOCC1 (stereo not shown) [1-adamantylethyloxy-3-morpholino-2-propanol]
- mortality [1]: promoted the reducing mortality in rats
- bcl-2 antiapoptotic protein expression ([2]; 10 mg/kg once a day for 96 hours): promoted the increasing of bcl-2 antiapoptotic protein expression
- RNA content and transcriptional activity of cardiomyocytes [2, 3]: increasing of RNA content and transcriptional activity
- c-fos protein content in cardiomyocytes [2, 3]: promoted the increasing of c-fos protein content in cardiomyocytes
- cardiomyocytes nuclei density [2, 3]: retention of cardiomyocytes nuclei density
- percentage of necrotic cardiomyocytes [2, 3]: the percentage of necrotic cardiomyocytes is reduced
- manifestations of endothelial dysfunction and nitrosating stress ([2]; 3, 10, 20, 50 and 100 mg/kg once a day for 96 hours of ischemia): promoted to reduce manifestations of endothelial dysfunction and nitrosating stress
- coronary blood flow (cats): stimulates coronary blood flow
- hypotension (cats): not accompanied by hypotension
- peripheral vasodilatation, venous inflow and cardiac output (cats): not associated with peripheral vasodilatation, decreased of venous inflow and cardiac output
